# Source: patent publication US20260158014A1, “METHODS OF ADMINISTERING VOXELOTOR” (Global Blood Therapeutics, Inc., priority 2021, published 2026)
# Entries after “also recorded” stand apart in the source; their conditions may differ.
# Tests used:
# [1] = PK in patients with HbSC genotype; format: in vivo, human
# CYP2C19 = biological target: T1, CYP2C19 (Homo sapiens, UniProt P33261); test: Clinical probe-substrate DDI study: omeprazole; format: in vivo
# T1 construct: endogenous in cells; host or cells: healthy human subjects (in vivo)
# Experimental: (§1) The effect of voxelotor on the pharmacokinetics (PK) of a single dose of caffeine, warfarin sodium, omeprazole, and midazolam hydrochloride, which are probe substrates for cytochrome P450 (CYP)1A2, CYP2C9, CYP2C19, and CYP3A4, respectively, were studied in healthy subjects. During Period 1, subjects received a single dose of caffeine 100 mg, warfarin sodium 10 mg+vitamin K 10 mg, omeprazole 20 mg, and midazolam hydrochloride 2 mg on Day 1. During Period 2, subjects received voxelotor 900 mg QD on Days 1 and 2 followed by 600 mg QD on Day 3, a single dose of caffeine 100 mg, warfarin sodium 10 mg+vitamin K 10 mg, omeprazole 20 mg, and midazolam hydrochloride 2 mg on Day 4, and voxelotor 600 mg QD on Days 4 through 7.
# (§2) Whole blood and plasma concentrations of voxelotor and plasma concentrations of caffeine, paraxanthine, S-warfarin, omeprazole, 5-hydroxyomeprazole, midazolam, and 1-hydroxymidazolam were determined using validated assays.
# [2] = Clinical DDI: acid reducing agent omeprazole on voxelotor; details: in vivo
# [3] = Probe-substrate DDI study: voxelotor exposure and safety in healthy subjects; format: in vivo, human
# Experimental: as §1, §2
# CYP3A4 [4] = biological target: T2, CYP3A4 (Homo sapiens, UniProt P08684); test: Clinical DDI: strong CYP3A4 inhibitor itraconazole on voxelotor; format: in vivo; set-up: host or cells: Simcyp PBPK simulation; details: healthy subjects
# OAT1 = OAT1 (Homo sapiens, UniProt Q4U2R8); test: In vitro transporter study; format: in vitro ADME
# rat [5] = test: Rat Comet assay; details: in vivo
# Hb = test: Pharmacodynamics: Hb oxygen affinity (p50) and clinical measures of hemolysis; format: in vivo
# rats = test: Fertility and early embryonic development study; format: in vivo, rat
# Experimental: In a fertility and early embryonic development study, voxelotor was administered orally to rats at 15, 50, and 250 mg/kg/day. Males were dosed 28 days prior to mating through cohabitation and females were dosed 14 days prior to mating through gestation Day 7.
# [6] = Physicochemical description (solubility, hygroscopicity); details: crystalline Form II free base
# [7] = Excretion of radiolabeled voxelotor; format: in vivo
# rat [8] = test: Rat micronucleus assay; details: in vivo
# [9] = test system: patients with SCD aged 4 to 11 years; test: Open-label Phase 2 trial (part C): safety assessment (TEAEs)
# [10] = Tablet for oral suspension versus oral tablet exposure in healthy subjects; format: in vivo, human
# MATE1 = MATE1 (Homo sapiens, UniProt Q96FL8); test: In vitro transporter study; format: in vitro ADME
# MATE2-K = MATE2-K (Homo sapiens, UniProt Q86VL8); test: In vitro transporter study; format: in vitro ADME
# [11] = Voxelotor in milk of lactating rats; format: in vivo, rat
# [12] = test system: bacterial reverse mutation; test: Reverse mutation bacterial (Ames) test; format: cell-based
# CYP3A4 [13] = biological target: T2, CYP3A4; test: Clinical probe-substrate DDI study: midazolam; details: human, in vivo
# Experimental: as §1, §2
# [14] = PK in subjects with hepatic impairment; format: in vivo, human
# pregnant rabbits = test: Embryo-fetal development study in rabbits; format: in vivo, rabbit; details: oral 25, 75, 150 mg/kg/day, gestation days 7 through 19
# Experimental: In embryo-fetal development studies, voxelotor was administered orally to pregnant rats at 15, 50, and 250 mg/kg/day (gestation days 7 through 17) and rabbits at 25, 75, and 150 mg/kg/day (gestation days 7 through 19) through organogenesis.
# [15] = 4 to 11 years, n=45, listed as OXBRYTA
# T2 sequence (P08684 whole entry): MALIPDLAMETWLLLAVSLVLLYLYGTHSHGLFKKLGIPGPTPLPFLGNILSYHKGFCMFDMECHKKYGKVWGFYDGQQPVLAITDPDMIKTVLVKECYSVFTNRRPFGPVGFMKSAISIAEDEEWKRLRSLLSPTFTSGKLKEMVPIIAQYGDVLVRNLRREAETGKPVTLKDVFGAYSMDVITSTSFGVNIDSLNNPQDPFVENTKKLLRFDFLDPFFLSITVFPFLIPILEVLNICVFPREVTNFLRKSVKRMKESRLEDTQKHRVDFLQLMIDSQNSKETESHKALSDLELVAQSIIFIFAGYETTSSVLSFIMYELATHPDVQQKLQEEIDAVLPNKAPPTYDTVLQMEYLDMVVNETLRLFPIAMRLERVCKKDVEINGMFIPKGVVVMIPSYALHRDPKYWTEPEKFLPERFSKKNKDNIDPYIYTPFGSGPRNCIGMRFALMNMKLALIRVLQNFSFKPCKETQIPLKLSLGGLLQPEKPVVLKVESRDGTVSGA
# T1 sequence (P33261 whole entry): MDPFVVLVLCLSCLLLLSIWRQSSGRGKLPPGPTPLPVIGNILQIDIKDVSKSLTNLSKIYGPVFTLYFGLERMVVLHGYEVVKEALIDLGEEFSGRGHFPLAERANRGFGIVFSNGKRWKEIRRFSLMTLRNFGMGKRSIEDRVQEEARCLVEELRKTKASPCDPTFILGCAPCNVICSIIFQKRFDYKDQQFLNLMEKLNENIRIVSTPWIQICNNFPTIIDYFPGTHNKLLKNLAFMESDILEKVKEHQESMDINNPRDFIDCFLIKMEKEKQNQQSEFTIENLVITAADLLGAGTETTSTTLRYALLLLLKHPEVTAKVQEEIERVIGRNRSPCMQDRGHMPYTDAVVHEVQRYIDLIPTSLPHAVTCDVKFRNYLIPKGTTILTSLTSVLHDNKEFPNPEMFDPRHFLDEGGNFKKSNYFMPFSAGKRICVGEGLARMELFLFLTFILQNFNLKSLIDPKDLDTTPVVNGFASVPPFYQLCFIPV
# Sequence of MATE1 (Q96FL8 whole entry, species assumed): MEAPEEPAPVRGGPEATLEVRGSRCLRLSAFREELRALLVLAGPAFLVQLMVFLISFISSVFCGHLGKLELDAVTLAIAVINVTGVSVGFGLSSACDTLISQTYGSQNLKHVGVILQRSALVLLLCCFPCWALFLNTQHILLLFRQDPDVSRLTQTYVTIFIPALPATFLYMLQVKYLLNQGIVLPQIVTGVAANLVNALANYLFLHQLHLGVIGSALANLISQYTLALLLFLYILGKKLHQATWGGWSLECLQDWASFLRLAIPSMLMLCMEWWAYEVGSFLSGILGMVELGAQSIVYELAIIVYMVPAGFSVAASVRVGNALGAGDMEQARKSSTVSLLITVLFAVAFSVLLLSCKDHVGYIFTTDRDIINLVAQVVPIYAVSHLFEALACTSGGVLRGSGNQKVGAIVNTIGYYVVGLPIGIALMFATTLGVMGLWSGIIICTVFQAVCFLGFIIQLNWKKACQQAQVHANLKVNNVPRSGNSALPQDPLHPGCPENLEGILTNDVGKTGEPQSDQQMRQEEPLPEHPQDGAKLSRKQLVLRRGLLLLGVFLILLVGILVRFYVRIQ
# Sequence of OAT1 (Q4U2R8 whole entry, species assumed): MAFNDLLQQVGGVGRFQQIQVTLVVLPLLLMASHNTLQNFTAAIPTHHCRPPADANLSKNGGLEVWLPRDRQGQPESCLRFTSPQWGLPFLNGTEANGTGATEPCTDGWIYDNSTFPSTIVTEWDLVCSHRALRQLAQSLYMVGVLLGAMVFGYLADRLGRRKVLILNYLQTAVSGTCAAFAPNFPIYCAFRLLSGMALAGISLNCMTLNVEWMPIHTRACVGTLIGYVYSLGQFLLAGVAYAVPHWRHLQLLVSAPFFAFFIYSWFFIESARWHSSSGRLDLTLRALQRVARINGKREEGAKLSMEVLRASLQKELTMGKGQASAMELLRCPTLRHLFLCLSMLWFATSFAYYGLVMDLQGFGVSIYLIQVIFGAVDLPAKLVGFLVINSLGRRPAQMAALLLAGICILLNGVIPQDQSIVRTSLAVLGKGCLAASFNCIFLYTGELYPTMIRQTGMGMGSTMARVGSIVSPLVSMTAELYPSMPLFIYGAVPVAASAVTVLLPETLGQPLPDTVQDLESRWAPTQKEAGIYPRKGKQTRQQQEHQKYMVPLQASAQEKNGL
# Sequence of MATE2-K (Q86VL8 1-566 isoform Q86VL8-3, species assumed): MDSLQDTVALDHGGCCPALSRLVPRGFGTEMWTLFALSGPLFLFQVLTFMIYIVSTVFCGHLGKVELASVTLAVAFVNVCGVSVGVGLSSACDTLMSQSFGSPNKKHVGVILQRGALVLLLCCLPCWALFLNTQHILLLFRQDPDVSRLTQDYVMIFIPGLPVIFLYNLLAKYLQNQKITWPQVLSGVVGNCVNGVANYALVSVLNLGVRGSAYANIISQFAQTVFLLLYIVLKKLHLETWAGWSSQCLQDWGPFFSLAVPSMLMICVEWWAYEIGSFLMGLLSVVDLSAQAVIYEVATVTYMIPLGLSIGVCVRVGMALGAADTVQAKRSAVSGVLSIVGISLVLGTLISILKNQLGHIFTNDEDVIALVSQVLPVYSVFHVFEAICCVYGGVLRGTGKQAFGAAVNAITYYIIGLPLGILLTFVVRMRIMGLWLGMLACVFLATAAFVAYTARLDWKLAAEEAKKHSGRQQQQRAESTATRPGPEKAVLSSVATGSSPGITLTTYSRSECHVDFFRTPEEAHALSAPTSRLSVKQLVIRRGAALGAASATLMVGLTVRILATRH
smiles,measurement,setting,value
"CC(C)n1nccc1-c1ncccc1COc1cccc(O)c1C=O [voxelotor, 2-hydroxy-6-((2-(1-isopropyl-1H-pyrazol-5-yl)pyridin-3-yl)methoxy)benzaldehyde]",steady state whole blood AUC higher in HbSC vs HbSS genotype,"[1]; HbSC n=11, HbSS n=220",50%
same,steady state whole blood Cmax higher in HbSC vs HbSS genotype,"[1]; HbSC n=11, HbSS n=220",45%
same,steady state plasma AUC higher in HbSC vs HbSS genotype,"[1]; human, in vivo",23%
same,steady state plasma Cmax higher in HbSC vs HbSS genotype,"[1]; human, in vivo",15%
same,effect of voxelotor on PK of CYP2C19 probe substrate omeprazole,"CYP2C19; healthy subjects, voxelotor 900/600 mg QD, omeprazole 20 mg",no clinically meaningful effect
same,CYP2C19 inhibition in vivo,"CYP2C19; human, in vivo",not
same,effect of omeprazole (proton pump inhibitor) on voxelotor exposure,[2],did not alter voxelotor exposure
same,safety and tolerability alone and with probe substrates,[3],safe and well tolerated
same,increase of voxelotor AUC with itraconazole,CYP3A4 [4],11%
same,OAT1 inhibition,OAT1,not an inhibitor
same,"genotoxicity, rat Comet assay",rat [5],not genotoxic
same,clinical measures of hemolysis (indirect bilirubin and % reticulocytes),Hb; in vivo,dose-dependent reduction
same,Hb oxygen affinity as determined by change in p50,Hb; linearly correlated with voxelotor exposure,dose-dependent increase
same,sperm morphology,rats; 250 mg/kg/day,changes in sperm morphology
same,sperm motility,rats; 250 mg/kg/day,decreased
same,fertility or reproductive function,"rats; oral 15, 50, 250 mg/kg/day",no effect on fertility or reproductive function
same,"exposure at 250 mg/kg/day relative to human exposure at 1,500 mg/day","rats; rat, in vivo",approximately 5 times
same,hygroscopicity,[6],non-hygroscopic
same,solubility in common organic solvents such as acetone and toluene,[6],highly soluble
same,solubility in water,[6],insoluble in water
same,dose and metabolites excreted in urine,[7],35.5%
same,dose and metabolites excreted into feces,[7],approximately 62.6%
same,dose excreted unchanged in feces,[7],33.3%
same,dose excreted unchanged in urine,[7],0.08%
same,"genotoxicity, rat micronucleus assay",rat [8],not genotoxic
same,Any drug-related TEAE,"[9]; 4-11 years, n=45, week 24",22 (48.9) n (%)
same,Drug-related AE: Abdominal pain,"[9]; 4-11 years, n=45, week 24",4 (8.9) n (%)
same,Drug-related AE: Diarrhea,"[9]; 4-11 years, n=45, week 24",5 (11.1) n (%)
same,Drug-related AE: Headache,"[9]; 4-11 years, n=45, week 24",2 (4.4) n (%)
same,Drug-related AE: Hypersplenism,"[9]; 4-11 years, n=45, week 24",2 (4.4) n (%)
same,Drug-related AE: Pyrexia,"[9]; 4-11 years, n=45, week 24",2 (4.4) n (%)
same,Drug-related AE: Rash,"[9]; 4-11 years, n=45, week 24",5 (11.1) n (%)
same,Drug-related AE: Transaminases increased,"[9]; 4-11 years, n=45, week 24",4 (8.9) n (%)
same,Drug-related AE: Vomiting,"[9]; 4-11 years, n=45, week 24",5 (11.1) n (%)
same,tolerability of weight-based dosing,"[9]; 4 to 11 years, median exposure 43.3 weeks",well tolerated
same,deaths,"[9]; 4 to 11 years, n=45",no deaths
same,"drug-related TEAE diarrhea, patients","[9]; 4 to 11 years, n=45",11%
same,"drug-related TEAE rash, patients","[9]; 4 to 11 years, n=45",11%
same,"drug-related TEAE vomiting, patients","[9]; 4 to 11 years, n=45",11%
same,"pyrexia, patients (non-SCD related TEAE / adverse reaction)","[9]; 4 to 11 years, n=45",35.6%
same,"rash, patients (non-SCD related TEAE / adverse reaction)","[9]; 4 to 11 years, n=45",20%
same,"vomiting, patients (non-SCD related TEAE / adverse reaction)","[9]; 4 to 11 years, n=45",33.3%
same,"pyrexia, patients (non-SCD related TEAE / adverse reaction)",[9]; [15],36%
same,"vomiting, patients (non-SCD related TEAE / adverse reaction)",[9]; [15],33%
same,"abdominal pain, patients (adverse reaction)","[9]; 4 to <12 years, n=45",18%
same,"diarrhea, patients (adverse reaction)","[9]; 4 to <12 years, n=45",18%
same,"headache, patients (adverse reaction)","[9]; 4 to <12 years, n=45",18%
same,patients who discontinued voxelotor due to adverse events,"[9]; of 45 patients, 2 drug-related, 2 unrelated",4 patients
same,"exposures, tablet for oral suspension dispersed in water vs oral tablet swallowed whole",[10],comparable
same,MATE1 inhibition,MATE1,not an inhibitor
same,MATE2-K inhibition,MATE2-K,not an inhibitor
same,presence in milk,[11]; lactating rats,detected in milk
same,plasma concentrations relative to concentration in milk,[11]; rats,higher
same,"genotoxicity, Ames test",[12],not genotoxic
same,CYP3A4 inhibition in vivo,CYP3A4 [13],inhibits
same,CYP3A4 inhibitor classification,CYP3A4 [13],moderate inhibitor
same,"whole blood AUC higher vs normal hepatic function, mild hepatic impairment",[14]; Child Pugh A,14%
same,"whole blood AUC higher vs normal hepatic function, moderate hepatic impairment",[14]; Child Pugh B,15%
same,"whole blood AUC higher vs normal hepatic function, severe hepatic impairment",[14]; Child Pugh C,90%
same,developmental outcome,pregnant rabbits,no adverse developmental effects; also recorded: no evidence of adverse developmental outcomes
